# Measurements published in a melting point compilation (Tetko et al.; mined from patent text by program, amines drawn as free bases though some values may be those of a salt).
row,SMILES,melting point [°C]
1,CCS(=O)(=O)c1ccc(-c2coc3ccc(-c4nnc(C)o4)cc23)cc1,180 to 181
2,O=C(NNc1ccc([N+](=O)[O-])cc1)C(F)(F)F,115 to 117
3,COc1cc(OC)nc(NC(=O)NS(=O)(=O)c2nn(C)c3cccc(F)c23)n1,205 to 209
4,COc1cc(CCNC(=O)[C@@H](NS(C)(=O)=O)C(C)C)ccc1OCC#Cc1ccccc1,130 to 132
5,CCOC(=O)c1cc(-c2ccccc2)nn1Cc1ccc(Cl)cc1Cl,104 to 107
6,O=C(Nc1ccc2cc(CN3CCCC3)cnc2c1)c1ccc(-c2ccccc2)cc1F,166
7,Cc1cc([N+](=O)[O-])c(Cl)nc1C,72 to 76
8,CC(=O)Nc1cccc2c1Oc1ccccc1C21CCN(C)CC1,176 to 178
9,CCC1(CC)OC(=S)Nc2ccc(-c3cccc(Cl)c3)cc21,148 to 150
10,CN=C(NC#N)NCCCSCc1nsc(NC(=N)N)n1,117 to 120
11,CCNC(=S)NC1CCC(=O)c2ccccc21 (configuration not stated),134 to 138
12,c1ccc(CSc2nc3ncccn3n2)cc1,104 to 106
13,COC(=O)c1cc(CBr)cc(CBr)c1,64 to 70
14,COC(=O)C(NC(C)=O)C(=O)OCCBr (configuration not stated),84 to 85
15,Cc1ccc(C(=O)O)c(C2=NC(=O)C(C)(C(C)C)N2)n1 (configuration not stated),139 to 142
16,O=C(O)c1ccc(-c2nn(-c3ccc(C(=O)O)cc3)c3ccc([N+](=O)[O-])cc23)cc1,348 to 350
17,CC1(C)c2c(Cl)cccc2S(=O)(=O)N1CC=O,156
18,COc1cc(C(=O)N(C(C)C)C(C)C)ccc1OCCCCCOc1ccc(C#N)cc1,90 to 92
19,CCCCOc1cc(F)ccc1[N+](=O)[O-],75 to 76
20,CSc1nc(-c2ccccc2)n(-c2ccc(F)cc2)c(=O)c1C#N,204 to 205
21,CN1CC2=C(n3cnc(C#Cc4ccccc4)c3C1)S(=O)C=C2 (configuration not stated),143 to 144
22,CC1NC(=O)OC1c1ccc(C(F)(F)F)cc1 (configuration not stated),158 to 159
23,O=c1[nH]c2ncc(-c3ccc(-n4cccn4)cc3)nc2n1CC1CCOCC1,294 to 296
24,O=C(c1cn(-c2ccccc2)nc1-c1ccc([N+](=O)[O-])o1)N1CCCC1,236 to 238
25,O=C(O)C1CC1c1cc(=O)c2ccc3ccccc3c2o1 (configuration not stated),286 to 288
26,CC(C)c1cc(C(C)C)c(C(F)C(=O)c2ccc(C(C)C)c(OS(N)(=O)=O)c2C(C)C)c(C(C)C)c1 (configuration not stated),130 to 132

row,SMILES,melting point [°C]
1,Cc1cc(Cc2nnc(Nc3cc(Br)cc(C(F)(F)F)c3)c3ccccc23)ccn1,122 to 123
2,CCOC(=O)C(C)Sc1nc(-c2cc(C(C)(C)C)c(O)c(C(C)(C)C)c2)c[nH]1 (configuration not stated),80 to 82
3,CN(C)CCC(c1ccc(C(=O)NN)cc1)c1ncc[nH]1 (configuration not stated),168 to 170
4,CNc1nc(-c2cncc(C#Cc3cccnc3)c2)c2cc(OC)c(OC)cc2n1,208 to 211
5,CCCOc1ccc(C(=O)C=CC(=O)O)cc1OC,136
6,CCOC1CN(Cc2cccc(OC)c2)Cc2cc(OC)c(O)cc21 (configuration not stated),134 to 135
7,COc1cc(Nc2c(C#N)cnc3cc4cc(OC)c(OCCN5CCOCC5)cc4cc23)c(Cl)cc1C,240 to 241
8,CNS(=O)(=O)OCCOc1ccc(-n2ccnc2)cc1,85 to 88
9,OC(c1ccc(Cl)cc1)c1cc2ccncc2[nH]1 (configuration not stated),176 to 180
10,O=[N+]([O-])c1cc(F)cc2c1OCC2,113 to 114
11,COc1cc(OC)nc(NS(=O)(=O)C(C(N)=O)C(C)C)n1 (configuration not stated),147 to 150
12,CNC(=O)c1c(NC(=O)COC)c(OC)c(C(=O)NC)c(NC(=O)COC)c1OC,275 to 276
13,Cn1c(=O)c2c(ncn2CCCCCCl)n(C)c1=O,78 to 80
14,NS(=O)(=O)c1ncccc1C(F)(F)F,135 to 140
15,O=c1c2ncn3c2n(c(=O)n1Cc1ccccc1)CC=C3c1cccc(C(F)(F)F)c1,198 to 200
16,Cc1ccc(Br)c(C)c1C#N,60
17,O=C(Nc1ccccc1)C(CBr)CBr,143 to 144
18,NCC(=NNc1ccccc1)c1ccccc1,106 to 108
19,CSc1ncc2c(Cl)cc(I)n2n1,216 to 220
20,COCc1cc(N(C)C)ncn1,42 to 44
21,CC(=O)NCC(C)(C)c1ccc2nc(-c3ccncc3)[nH]c2c1,219 to 225
22,CCN(CC)C(=O)COc1nc(-c2ccccc2)c2ccccc2n1,88
23,CCc1cn(C2CC(O)C(COC(c3ccccc3)(c3ccccc3)c3ccccc3)O2)c(=O)[nH]c1=O (configuration not stated),168 to 172
24,Cc1cc(O)c(C23CC4CC(CC(C4)C2)C3)cc1-c1cccc(C=C2SC(N3CCOCC3)=NC2=O)c1,327 to 329
25,CCCN1C(=O)N2CCN=C2c2c1nc(C1CCCC1)n2C,246 to 247
26,Cc1cccc(OC(=O)c2ccccc2)c1,51 to 54

row,SMILES,melting point [°C]
1,CCCC(=O)c1ccnc(Cl)c1NC(=O)c1ccccc1F,142
2,Cc1cc2c(-c3ccccc3)c(CCO)n(C)c(=O)c2cc1C,204 to 207
3,O=C1NCN(c2ccc(Br)cc2)C12CCN(C1C=CC(c3ccc(F)cc3)(c3ccc(F)cc3)CC1)CC2 (configuration not stated),219 to 221
4,CN(C)C=C1C(=O)N(C)C(=O)N1c1cccc(C(F)(F)F)c1,103 to 104
5,CSC(SC)=C(C#N)C(=O)NC1CCCCC1,103 to 105
6,O=C1CC(=C[N+](=O)[O-])Nc2ccccc2N1c1ccccc1,231 to 234
7,COC(=O)CCn1c(=O)n(CCN2CCN(c3ccccc3C)CC2)c(=O)c2cscc21,149 to 150
8,Nc1ccc(OC(F)(F)F)cc1C(=O)O,142 to 144
9,Cn1nc(-c2ccc(Cl)c(Cl)c2)c2ccccc2c1=O,179 to 181
10,CN(C)C=C(C(=O)C(C)(C)C)n1ccnc1,45 to 50
11,CCCOc1ccc2c(c1)C(OS(=O)(=O)F)=C(C(=O)OC)[C@H]2c1ccc2c(c1)OCO2,160 to 161
12,O=C(C(Cl)Cl)N1CCCCCC1,56
13,Cc1ccc(O)cc1N=C(c1ccccc1)c1ccccc1,106 to 108
14,CCOCc1nc2c(N)nc3ccccc3c2n1CC(C)(O)CC (configuration not stated),189 to 191
15,CCCN1C(=O)COc2ccc(N3C(=O)C(C)=C(C)C3=O)cc21,147 to 149
16,O=C(O)c1nc2n(n1)-c1ccccc1N(c1cccc(C(F)(F)F)c1)C2,204 to 206
17,CC(C)(F)[C@H]1C(=O)N[C@@H]1CC(=O)OCc1ccccc1 (racemic),112 to 116
18,CCNS(=O)(=O)c1ccccc1C1CCCCC1,100 to 102
19,c1cc(-n2cnnn2)ccc1SCN1CCOCC1,118 to 121
20,CCC(OCCc1ccc(-c2ccc(Cl)cc2)cc1)C(=O)O (configuration not stated),90 to 92
21,COCCN(CCOC)c1ccc(Nn2c(C)ccc2C)nn1,112 to 114
22,NC(=NO)c1ccc(O)c(O)c1,193
23,CN1OCN=C1c1nn(-c2c(Cl)cc(C(F)(F)F)cc2Cl)c(N)c1S(=O)C(F)(F)F (configuration not stated),165 to 167
24,Cc1cccc(N2CCN(c3ccc(Oc4ccccc4)nn3)CC2)c1,123
25,Cc1ccc(S(=O)(=O)OCCc2cccs2)cc1,30
